According to BigSolDB 2.1:

CC(=O)c1c(C)c([N+](=O)[O-])c(C(C)(C)C)c([N+](=O)[O-])c1C
solubility (mole fraction)
Conditions | 278.15 K | 283.15 K | 288.15 K | 293.15 K | 298.15 K | 303.15 K | 308.15 K | 313.15 K | 318.15 K
in DMF | 0.0747 | 0.0867 | 0.0998 | 0.113 | 0.128 | 0.147 | 0.167 | 0.187 | 0.211
in ethanol | 0.00197 | 0.00243 | 0.003 | 0.00367 | 0.00444 | 0.00531 | 0.00633 | 0.00753 | 0.00892
in isopropanol | 0.00161 | 0.00204 | 0.00258 | 0.00323 | 0.00408 | 0.00506 | 0.0063 | 0.00771 | 0.00933
in methanol | 0.0013 | 0.00156 | 0.00187 | 0.00224 | 0.00267 | 0.00318 | 0.00375 | 0.00442 | 0.00515
